From ChEMBL document CHEMBL3632586, “Designing, synthesis of selective and high-affinity chalcone-benzothiazole hybrids as Brugia malayi thymidylate kinase inhibitors: In vitro validation and docking studies” (Eur J Med Chem, 2015)
Values after ≈ are worked out from the molar mass of the structure shown.

Tests used:
[1] = Inhibition of recombinant Brugia malayi TMK using dTMP as substrate by pyruvate kinase/lactate dehydrogenase coupled assay
Brugia malayi [2] = assay: Antifilarial activity against adult Brugia malayi assessed as motility reduction at 2.5 uM/ml after 1 hr by microscopic analysis; assay type: functional
Brugia malayi [3] = assay: Antifilarial activity against adult Brugia malayi assessed as motility reduction at 1.25 uM/ml after 1 hr by microscopic analysis; assay type: functional
Brugia malayi [4] = assay: Antifilarial activity against Brugia malayi microfilariae assessed as motility reduction at 2.5 uM/ml after 1 hr by microscopic analysis; assay type: functional
[5] = Therapeutic index, ratio of CC50 for monkey VERO cells to IC50 for Brugia malayi microfilariae; assay type: cell-based; settings: for selectivity ratio: Vero cells, read-out: Ratio CC50/IC50
Brugia malayi [6] = assay: Antifilarial activity against adult Brugia malayi assessed as motility reduction after 1 hr by microscopic analysis; assay type: functional, organism-based
Brugia malayi [7] = assay: Antifilarial activity against adult Brugia malayi assessed as motility reduction at 0.625 uM/ml after 1 hr by microscopic analysis; assay type: functional
Brugia malayi [8] = assay: Antifilarial activity against adult Brugia malayi assessed as reduction in viability at 1.25 uM/ml after 24 to 48 hrs by MTT assay; assay type: functional
Brugia malayi [9] = assay: Antifilarial activity against Brugia malayi microfilariae assessed as motility reduction at 0.625 uM/ml after 1 hr by microscopic analysis; assay type: functional
Brugia malayi [10] = assay: Antifilarial activity against adult Brugia malayi assessed as reduction in viability at 5 uM/ml after 24 to 48 hrs by MTT assay; assay type: functional
Brugia malayi [11] = assay: Antifilarial activity against Brugia malayi microfilariae assessed as motility reduction after 1 hr by microscopic analysis; assay type: functional, organism-based
Brugia malayi [12] = assay: Antifilarial activity against adult Brugia malayi assessed as reduction in viability at 2.5 uM/ml after 24 to 48 hrs by MTT assay; assay type: functional
Brugia malayi [13] = assay: Antifilarial activity against Brugia malayi microfilariae assessed as motility reduction at 5 uM/ml after 1 hr by microscopic analysis; assay type: functional
[14] = Cytotoxicity against African green monkey Vero cells after 72 hrs by resazurin dye-based fluorometric analysis; assay type: cell-based; settings: chlorocebus sabaeus
Brugia malayi [15] = assay: Antifilarial activity against adult Brugia malayi assessed as motility reduction at 5 uM/ml after 1 hr by microscopic analysis; assay type: functional
[16] = Therapeutic index, ratio of CC50 for monkey VERO cells to IC50 for adult Brugia malayi; assay type: cell-based; settings: for selectivity ratio: Vero cells, read-out: Ratio CC50/IC50
Brugia malayi [17] = assay: Antifilarial activity against adult Brugia malayi assessed as reduction in viability at 0.625 uM/ml after 24 to 48 hrs by MTT assay; assay type: functional
Brugia malayi [18] = assay: Antifilarial activity against Brugia malayi microfilariae assessed as motility reduction at 1.25 uM/ml after 1 hr by microscopic analysis; assay type: functional
Brugia malayi [19] = assay: Antifilarial activity against adult Brugia malayi assessed as reduction in viability at 0.15 uM/ml after 24 to 48 hrs by MTT assay; assay type: functional, organism-based
Brugia malayi [20] = assay: Antifilarial activity against adult Brugia malayi assessed as motility reduction at 0.6 uM/ml after 1 hr by microscopic analysis; assay type: functional, organism-based
Brugia malayi [21] = assay: Antifilarial activity against Brugia malayi microfilariae assessed as motility reduction at 0.15 uM/ml after 1 hr by microscopic analysis; assay type: functional, organism-based
Brugia malayi [22] = assay: Antifilarial activity against adult Brugia malayi assessed as reduction in viability at 0.6 uM/ml after 24 to 48 hrs by MTT assay; assay type: functional, organism-based
Brugia malayi [23] = assay: Antifilarial activity against adult Brugia malayi assessed as motility reduction at 0.3 uM/ml after 1 hr by microscopic analysis; assay type: functional, organism-based
Brugia malayi [24] = assay: Antifilarial activity against adult Brugia malayi assessed as reduction in viability at 10 uM/ml after 24 to 48 hrs by MTT assay; assay type: functional
Brugia malayi [25] = assay: Antifilarial activity against adult Brugia malayi assessed as motility reduction at 0.15 uM/ml after 1 hr by microscopic analysis; assay type: functional, organism-based
Brugia malayi [26] = assay: Antifilarial activity against Brugia malayi microfilariae assessed as motility reduction at 10 uM/ml after 1 hr by microscopic analysis; assay type: functional
Brugia malayi [27] = assay: Antifilarial activity against adult Brugia malayi assessed as reduction in viability at 0.3 uM/ml after 24 to 48 hrs by MTT assay; assay type: functional, organism-based
Brugia malayi [28] = assay: Antifilarial activity against Brugia malayi microfilariae assessed as motility reduction at 0.6 uM/ml after 1 hr by microscopic analysis; assay type: functional, organism-based
Brugia malayi [29] = assay: Antifilarial activity against Brugia malayi microfilariae assessed as motility reduction at 0.3 uM/ml after 1 hr by microscopic analysis; assay type: functional, organism-based
Brugia malayi [30] = assay: Antifilarial activity against adult Brugia malayi assessed as motility reduction at 10 uM/ml after 1 hr by microscopic analysis; assay type: functional

Cc1cc(/C=N/Nc2nc3ccccc3s2)cc(/C=C/C(=O)c2ccccc2)c1O
Ki [1]: 16.5 µM

CC(C)c1cc(/C=N/Nc2nc3ccccc3s2)cc(/C=C/C(=O)c2cccs2)c1O
inhibition at 2.5 µM (Brugia malayi [2]): 50%
inhibition at 1.25 µM (Brugia malayi [3]): 1%
inhibition at 2.5 µM (Brugia malayi [4]): 75%
selectivity ratio [5]: 58.5
IC50 (Brugia malayi [6]): 2.12 µM
MIC (Brugia malayi [6]): 5 µM (≈ 2.24 µg/mL)
inhibition at 0.625 µM (Brugia malayi [7]): 1%
inhibition at 1.25 µM (Brugia malayi [8]): 9.3%
Ki [1]: 2.02 µM
inhibition at 0.625 µM (Brugia malayi [9]): 1%
inhibition at 5 µM (Brugia malayi [10]): 85%
IC50 (Brugia malayi [11]): 1.63 µM
MIC (Brugia malayi [11]): 5 µM (≈ 2.24 µg/mL)
inhibition at 2.5 µM (Brugia malayi [12]): 40.3%
inhibition at 5 µM (Brugia malayi [13]): 100%
CC50 at 72 h [14]: 95.3 µM
inhibition at 5 µM (Brugia malayi [15]): 100%
selectivity ratio [16]: 44.9
inhibition at 0.625 µM (Brugia malayi [17]): 8.7%
inhibition at 1.25 µM (Brugia malayi [18]): 50%

CCCc1cc(/C=N/Nc2nc3ccccc3s2)cc(/C=C/C(=O)c2ccc(Cl)cc2)c1O
Ki [1]: 26.6 µM

CCc1cc(/C=N/Nc2nc3ccccc3s2)cc(/C=C/C(=O)c2ccc(OC)cc2)c1O
Ki [1]: 30.4 µM

IVERMECTIN [listing 1 of 2 here]
Ratio CC50/IC50 ([5]; vero): 13.28
Ratio CC50/IC50 ([16]; vero): 29.5

CCCc1cc(/C=N/Nc2nc3ccccc3s2)cc(/C=C/C(=O)c2ccc(OC)c(OC)c2)c1O
Ki [1]: 27.1 µM

CC(C)c1cc(/C=N/Nc2nc3ccccc3s2)cc(/C=C/C(=O)c2ccc(F)cc2)c1O
Ki [1]: 21.6 µM

COc1ccc(C(=O)/C=C/c2cc(/C=N/Nc3nc4ccccc4s3)cc(C(C)C)c2O)cc1
Ki [1]: 3.09 µM

CCC(C)c1cc(/C=N/Nc2nc3ccccc3s2)cc(/C=C/C(=O)c2ccc(F)cc2)c1O (stereo not drawn)
Ki [1]: 7.91 µM

Cc1ccc(C(=O)/C=C/c2cc(/C=N/Nc3nc4ccccc4s3)cc(C(C)(C)C)c2O)cc1
Ki [1]: 4.69 µM

CC(C)(C)c1cc(/C=N/Nc2nc3ccccc3s2)cc(/C=C/C(=O)c2ccccc2)c1O
Ki [1]: 20.3 µM

IVERMECTIN [listing 2 of 2 here]
inhibition (Brugia malayi [19]): 15.7%
inhibition (Brugia malayi [20]): 100%
inhibition (Brugia malayi [2]): 100%
inhibition (Brugia malayi [21]): 0%
inhibition (Brugia malayi [22]): 22.9%
inhibition (Brugia malayi [3]): 100%
inhibition (Brugia malayi [4]): 75%
MIC (Brugia malayi [6]): 8.9 µM
inhibition (Brugia malayi [8]): 34.9%
inhibition (Brugia malayi [23]): 50%
inhibition (Brugia malayi [24]): 76%
inhibition (Brugia malayi [10]): 62.9%
inhibition (Brugia malayi [25]): 1%
inhibition (Brugia malayi [26]): 100%
MIC (Brugia malayi [11]): 10 µM
inhibition (Brugia malayi [12]): 50.5%
inhibition (Brugia malayi [13]): 75%
inhibition (Brugia malayi [15]): 100%
inhibition (Brugia malayi [27]): 10.7%
inhibition (Brugia malayi [28]): 50%
inhibition (Brugia malayi [29]): 0%
inhibition (Brugia malayi [30]): 100%
inhibition (Brugia malayi [18]): 75%

COc1ccc(C(=O)/C=C/c2cc(/C=N/Nc3nc4ccccc4s3)cc(C(C)C)c2O)cc1OC
Ki [1]: 50.6 µM

CC(C)c1cc(/C=N/Nc2nc3ccccc3s2)cc(/C=C/C(=O)c2ccc(Cl)cc2)c1O
Ki [1]: 22.8 µM

CCc1cc(/C=N/Nc2nc3ccccc3s2)cc(/C=C/C(=O)c2ccccc2)c1O
inhibition at 2.5 µM (Brugia malayi [2]): 1%
inhibition at 1.25 µM (Brugia malayi [3]): 1%
inhibition at 2.5 µM (Brugia malayi [4]): 75%
selectivity ratio [5]: 18.4
IC50 (Brugia malayi [6]): 4.34 µM
MIC (Brugia malayi [6]): 10 µM (≈ 4.28 µg/mL)
inhibition at 1.25 µM (Brugia malayi [8]): 10.5%
Ki [1]: 2.49 µM
inhibition at 10 µM (Brugia malayi [24]): 90.4%
inhibition at 5 µM (Brugia malayi [10]): 48%
inhibition at 10 µM (Brugia malayi [26]): 100%
IC50 (Brugia malayi [11]): 2.64 µM
MIC (Brugia malayi [11]): 10 µM (≈ 4.28 µg/mL)
inhibition at 2.5 µM (Brugia malayi [12]): 30%
inhibition at 5 µM (Brugia malayi [13]): 75%
CC50 at 72 h [14]: 48.6 µM
inhibition at 5 µM (Brugia malayi [15]): 50%
selectivity ratio [16]: 11.2
inhibition at 10 µM (Brugia malayi [30]): 100%
inhibition at 1.25 µM (Brugia malayi [18]): 1%

CCC(C)c1cc(/C=N/Nc2nc3ccccc3s2)cc(/C=C/C(=O)c2ccc(OC)cc2)c1O (stereo not drawn)
Ki [1]: 4.89 µM

CC(C)(C)c1cc(/C=N/Nc2nc3ccccc3s2)cc(/C=C/C(=O)c2ccc(F)cc2)c1O
Ki [1]: 3.17 µM
